In general, IC50 refers to the concentration needed to halve the response being measured. A higher IC50 goes with a need for much substance.

Experimental findings from BindingDB's records for patent US11066409 (Shionogi, 2021) are described below.

In this assay the target is T1, P2X purinoceptor 7 [R270H] (Homo sapiens, UniProt Q99572, R270H).
T1 construct: gene P2RX7
Nature of the assay: Inhibition Assay. The method, then:
Evaluation of a human P2X7 receptor inhibitory activity Stably expressing cell line (1321N1 cell transfected with the human P2X7 receptor gene (GenBank accession number NM_002562.5 including T606C and G952A SNP)) was used. The cells were seeded in a 384-well microtiter plate at a concentration of 8000 cells/well and cultured in the medium (10% fetal bovine serum, 25 mM HEPES, 1% penicillin and streptomycin in DMEM) for one day at 37° C. under 5% carbon dioxide atmosphere. After replacing with 20 μL of the HBSS buffer (20 mM HEPES, 55.6 mM D-glucose, 1× HBSS(−), pH7.4-7.5), 15 μL of 17.3 μM Yo-Pro solution in the HBSS buffer was added. The plate was placed in high-throughput cellular screening system FLIPR TETRA (Molecullar Devices, LLC.) and 15 μL of 130 μM BzATP solution in the HBSS buffer was added. Measurement of fluorescence intensity by FLIPR TETRA was started. After eight minutes, 15 μL of DMSO solutions containing different concentrations of the compound of the present invention as prepared by dilution with the HBSS buffer were dispensed to each well through the built-in automatic dispenser, and the measurement of fluorescence intensity was continued for 20 minutes. The maximum fluorescence intensity without the compound of the present invention is calculated as 0% inhibition and the maximum fluorescence intensity when the reference compound was added is calculated as 100% inhibition.

T1 sequence (Q99572 whole entry R270H, looked up): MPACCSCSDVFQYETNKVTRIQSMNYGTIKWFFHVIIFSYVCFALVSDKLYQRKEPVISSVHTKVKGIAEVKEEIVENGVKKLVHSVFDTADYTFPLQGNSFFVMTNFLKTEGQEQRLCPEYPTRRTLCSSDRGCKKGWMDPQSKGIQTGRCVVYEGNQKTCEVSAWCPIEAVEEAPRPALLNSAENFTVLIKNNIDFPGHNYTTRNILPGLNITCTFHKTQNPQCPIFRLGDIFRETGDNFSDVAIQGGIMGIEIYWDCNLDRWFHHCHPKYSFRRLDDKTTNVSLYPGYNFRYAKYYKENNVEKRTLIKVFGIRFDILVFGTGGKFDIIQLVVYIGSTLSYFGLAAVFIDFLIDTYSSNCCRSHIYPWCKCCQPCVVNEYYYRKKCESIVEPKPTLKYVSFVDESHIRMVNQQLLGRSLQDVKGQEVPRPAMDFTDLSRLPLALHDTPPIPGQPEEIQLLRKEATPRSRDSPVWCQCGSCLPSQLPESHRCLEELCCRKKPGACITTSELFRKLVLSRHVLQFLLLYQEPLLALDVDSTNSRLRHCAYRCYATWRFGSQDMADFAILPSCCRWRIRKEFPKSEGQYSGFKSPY

`Cc1ccc(OCCO)cc1NC1=NC(=O)N(C)C2=NCC(c3cc(F)c(F)c(F)c3)N12` (stereo not drawn) [US11066409, Compound I-0171]: the IC50 was found to be 19 nM.
Then `COc1cc(Nc2nc(=O)c(F)c3n2C(c2cc(F)cc(F)c2)CC3)c(C)cc1F` (stereo not drawn) [US11066409, Compound I-0099], with under 10 nM.
`Cc1cc(F)c(CO)cc1NC1=NC(=O)N(C)C2=NCC(c3cc(F)c(F)c(F)c3)N12` (stereo not drawn) [US11066409, Compound I-0168] yielded a half-maximal inhibitory concentration (IC50) of 23 nM.
